This note sets out measurements from patent US11548870B2, “Compounds useful as inhibitors of helios protein” (Bristol-Myers Squibb Company, priority 2019, dated 2023).

For one experiment, the target named is T1, Helios (Homo sapiens, UniProt Q96SW2+Q9UKS7).
T1 construct: fluorescently labelled antibodies against Helios and Ikaros; endogenous in cells; host or cells: Jurkat cells
As to the kind of experiment: Helios Cellular Degradation Assay (flow cytometry, Helios-PE antibody staining, 72 h). The experiment is classed as cell-based. Particulars: Jurkat cells, 72 h incubation, flow cytometry; for Dmax: Jurkat, read-out: Helios Dmax. How it is done:
(§1) Helios Cellular Degradation Assay
(§2) Jurkat cells were plated at 80,000 cells/well in 40 μL RPMI+10% FBS in a 384 well cell culture plate prior to using acoustic dispensing technology for adding compound of interest. Cell cultures were incubated for 72 h at 37° C. and 5% CO2. In order to facilitate analysis, cell cultures were spun down at 200 rpm for 5 min and the supernatant was discarded. After shaking the plate to dislodge the cell pellet, cells were resuspended in 50 μL of Fixation Buffer (eBioScience FoxP3 buffer set 0000) for 60 min at room temperature. After centrifuging and discarding the supernatant, cells were permeabilized with 50 μL of Permeabilization buffer (eBioScience FoxP3 buffer set 00-5523-00) for 10 min at room temperature. Following permeabilization, cells were spun down and the supernatant was replaced with 20 μL fluorescently labelled antibodies against Helios and Ikaros or corresponding Isotype controls in 1× Permeabilization buffer (Ikaros-Alexa488 [Biolegend, Cat #368408, 1:50], Helios-PE [CST, Cat #29360, 1:50]) and staining reactions were incubated for 1 h at room temperature; protected from light. Subsequently, 30 μL of 1× Permeabilization buffer was added prior to centrifuging the cells and discarding the supernatant. Stained cells were resuspended in 25 μL of flow cytometry staining buffer (PBS+0.2% BSA) and analyzed using an Intellicyt Ique Plus flow cytometer.
as §2, with “00-5523-00)” for “0000)”
For orientation: In flow cytometry, cells or beads pass a laser one at a time.

The target in a further experiment is T2, Ikaros (Homo sapiens, UniProt Q13422).
T2 construct: fluorescently labelled antibodies against Helios and Ikaros; endogenous in cells; host or cells: Jurkat cells
Put plainly: Helios Cellular Degradation Assay, Ikaros readout (flow cytometry, Ikaros-Alexa488 antibody staining, 72 h). The experiment is classed as cell-based. Particulars: Jurkat cells, 72 h incubation, flow cytometry; for Dmax: Jurkat, read-out: Ikaros Dmax. How it is done: as §1, §2
as §2, with “00-5523-00)” for “0000)”

T2 sequence (Q96SW2 whole entry partner): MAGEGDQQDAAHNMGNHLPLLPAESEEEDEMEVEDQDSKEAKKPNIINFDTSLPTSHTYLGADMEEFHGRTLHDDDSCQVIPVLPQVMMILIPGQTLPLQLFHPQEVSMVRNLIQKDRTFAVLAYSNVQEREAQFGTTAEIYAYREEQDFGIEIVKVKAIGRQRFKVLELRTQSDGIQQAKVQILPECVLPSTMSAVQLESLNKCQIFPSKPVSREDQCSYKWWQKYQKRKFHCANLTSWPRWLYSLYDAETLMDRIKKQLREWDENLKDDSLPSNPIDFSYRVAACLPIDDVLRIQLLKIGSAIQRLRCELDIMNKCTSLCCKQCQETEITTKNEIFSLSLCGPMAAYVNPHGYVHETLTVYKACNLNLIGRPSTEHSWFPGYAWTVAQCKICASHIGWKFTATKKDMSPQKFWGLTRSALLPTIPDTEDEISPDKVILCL
T2 sequence (Q16531 whole entry partner): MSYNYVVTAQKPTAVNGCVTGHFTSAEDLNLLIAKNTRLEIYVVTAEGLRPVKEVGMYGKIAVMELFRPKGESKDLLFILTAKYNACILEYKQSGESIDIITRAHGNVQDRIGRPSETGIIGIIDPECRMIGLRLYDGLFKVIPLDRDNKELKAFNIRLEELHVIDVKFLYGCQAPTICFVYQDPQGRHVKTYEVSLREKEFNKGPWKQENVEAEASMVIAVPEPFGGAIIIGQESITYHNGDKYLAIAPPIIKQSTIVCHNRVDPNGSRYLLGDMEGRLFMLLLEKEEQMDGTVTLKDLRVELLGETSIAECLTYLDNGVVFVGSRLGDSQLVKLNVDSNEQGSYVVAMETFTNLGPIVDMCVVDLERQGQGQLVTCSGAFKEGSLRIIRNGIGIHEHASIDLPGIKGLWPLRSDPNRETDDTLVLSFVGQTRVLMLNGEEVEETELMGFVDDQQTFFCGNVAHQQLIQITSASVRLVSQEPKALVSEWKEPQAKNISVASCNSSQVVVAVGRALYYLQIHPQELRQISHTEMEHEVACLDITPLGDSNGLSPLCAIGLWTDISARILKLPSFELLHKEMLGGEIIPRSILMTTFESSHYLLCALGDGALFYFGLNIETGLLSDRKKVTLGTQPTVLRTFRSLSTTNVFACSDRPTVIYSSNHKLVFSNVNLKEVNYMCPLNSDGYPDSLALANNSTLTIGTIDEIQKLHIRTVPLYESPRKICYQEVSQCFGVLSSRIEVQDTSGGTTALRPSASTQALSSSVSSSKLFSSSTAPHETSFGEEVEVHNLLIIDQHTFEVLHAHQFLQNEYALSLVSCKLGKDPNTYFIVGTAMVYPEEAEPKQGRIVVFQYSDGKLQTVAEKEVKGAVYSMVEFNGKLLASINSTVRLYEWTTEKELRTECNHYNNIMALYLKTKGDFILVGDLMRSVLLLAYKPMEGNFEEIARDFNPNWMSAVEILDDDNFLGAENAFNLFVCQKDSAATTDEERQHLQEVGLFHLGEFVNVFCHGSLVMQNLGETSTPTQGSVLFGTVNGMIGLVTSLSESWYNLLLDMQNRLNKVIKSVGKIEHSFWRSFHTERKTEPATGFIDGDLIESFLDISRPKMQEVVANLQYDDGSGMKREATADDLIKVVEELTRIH
T2 sequence (Q13422 whole entry): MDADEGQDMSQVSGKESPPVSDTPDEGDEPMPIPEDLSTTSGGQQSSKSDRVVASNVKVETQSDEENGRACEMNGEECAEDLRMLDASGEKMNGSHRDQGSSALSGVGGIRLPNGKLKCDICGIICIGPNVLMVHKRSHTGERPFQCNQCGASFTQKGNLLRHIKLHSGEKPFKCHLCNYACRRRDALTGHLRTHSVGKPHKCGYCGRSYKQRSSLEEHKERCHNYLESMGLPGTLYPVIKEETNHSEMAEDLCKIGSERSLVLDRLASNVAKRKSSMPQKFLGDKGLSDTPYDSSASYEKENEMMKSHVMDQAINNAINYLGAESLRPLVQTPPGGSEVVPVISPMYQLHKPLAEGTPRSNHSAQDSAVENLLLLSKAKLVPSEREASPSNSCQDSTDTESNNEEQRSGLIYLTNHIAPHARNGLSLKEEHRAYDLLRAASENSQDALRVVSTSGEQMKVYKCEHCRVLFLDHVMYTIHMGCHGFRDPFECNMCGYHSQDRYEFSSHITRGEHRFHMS
T1 sequence (Q9UKS7 whole entry): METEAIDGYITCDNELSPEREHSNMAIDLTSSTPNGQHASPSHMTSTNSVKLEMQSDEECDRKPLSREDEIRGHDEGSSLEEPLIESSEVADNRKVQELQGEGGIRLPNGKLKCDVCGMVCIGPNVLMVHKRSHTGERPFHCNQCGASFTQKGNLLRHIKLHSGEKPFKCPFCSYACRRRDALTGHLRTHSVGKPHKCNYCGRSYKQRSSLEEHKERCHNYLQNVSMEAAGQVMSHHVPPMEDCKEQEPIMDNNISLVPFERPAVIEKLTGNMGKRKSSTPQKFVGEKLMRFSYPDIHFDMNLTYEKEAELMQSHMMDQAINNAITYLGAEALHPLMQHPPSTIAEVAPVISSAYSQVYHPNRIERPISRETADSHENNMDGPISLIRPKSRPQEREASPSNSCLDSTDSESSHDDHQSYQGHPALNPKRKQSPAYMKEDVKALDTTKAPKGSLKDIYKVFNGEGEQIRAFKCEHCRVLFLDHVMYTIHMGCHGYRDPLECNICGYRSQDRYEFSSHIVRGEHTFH
T1 sequence (Q96SW2 whole entry): as the sequence (Q96SW2 whole entry partner) above
T1 sequence (Q16531 whole entry partner): as the sequence (Q16531 whole entry partner) above

In general, DC50 refers to the midpoint of the concentration-degradation curve. A high value points to a less potent degrader. The term Dmax denotes the greatest extent of degradation seen. For `CC(C)N(Cc1ccccc1)Cc1ccnc(-c2ccc3c(c2)CN(C2CCC(=O)NC2=O)C3=O)c1` (stereo not shown) [Example 19, 3-(5-(4-((benzyl(isopropyl)amino)methyl)pyridin-2-yl)-1-oxoisoindolin-2-yl)piperidine-2,6-dione], on Helios, it took 0.154 µM to reach half-maximal degradation (DC50) and the Dmax was found to be 82%. Also, at Ikaros, the DC50 was > 10 µM and the Dmax is 50%.

On to `CC1CCCN1Cc1ccnc(-c2ccc3c(c2)CN(C2CCC(=O)NC2=O)C3=O)c1` (stereo not shown) [Example 20, 3-(5-(4-((2-methylpyrrolidin-1-yl)methyl)pyridin-2-yl)-1-oxoisoindolin-2-yl)piperidine-2,6-dione], for which the DC50 on Helios is 0.06 µM; on Ikaros, > 10 µM. Further, the Dmax at Helios is 80%; at Ikaros, 11%.

For `CN(C)CCN(C)Cc1ccnc(-c2ccc3c(c2)CN(C2CCC(=O)NC2=O)C3=O)c1` (stereo not shown) [Example 21, 3-(5-(4-(((2-(dimethylamino)ethyl) (methyl)amino)methyl)pyridin-2-yl)-1-oxoisoindolin-2-yl)piperidine-2,6-dione], at Helios, the DC50 is > 10 µM and the Dmax stood at 35%. Further, on Ikaros, the DC50 was > 10 µM and the Dmax stood at 4%.

`CCN(Cc1ccncc1)Cc1ccnc(-c2ccc3c(c2)CN(C2CCC(=O)NC2=O)C3=O)c1` (stereo not shown) [Example 22, 3-(5-(4-((ethyl(pyridin-4-ylmethyl)amino)methyl)pyridin-2-yl)-1-oxoisoindolin-2-yl) piperidine-2,6-dione]: at Helios, half-maximal degradation (DC50) was put at 0.537 µM and the Dmax was 67%. Also, on Ikaros, the DC50 was > 10 µM and the Dmax is 33%.

On to `O=C1CCC(N2Cc3cc(-c4cc(CN5CCC(N6CCCC6)CC5)ccn4)ccc3C2=O)C(=O)N1` (stereo not shown) [Example 23, 3-(1-oxo-5-(4-((4-(pyrrolidin-1-yl)piperidin-1-yl)methyl)pyridin-2-yl)isoindolin-2-yl)piperidine-2,6-dione], for which, on Helios, the DC50 was > 10 µM and the Dmax was 22%. At Ikaros, the DC50 is > 10 µM and the Dmax was 14%.

As to `O=C1CCC(N2Cc3cc(-c4cc(CN5CCN(C(=O)c6ccco6)CC5)ccn4)ccc3C2=O)C(=O)N1` (stereo not shown) [Example 24, 3-(5-(4-((4-(furan-2-carbonyl)piperazin-1-yl)methyl)pyridin-2-yl)-1-oxoisoindolin-2-yl)piperidine-2,6-dione], at Helios, the DC50 was > 10 µM and the Dmax amounted to 3%. Moreover, on Ikaros, the DC50 is > 10 µM and the Dmax was found to be 11%.

Regarding `O=C1CCC(N2Cc3cc(-c4cc(CN5CCN(c6ccncc6)CC5)ccn4)ccc3C2=O)C(=O)N1` (stereo not shown) [Example 25, 3-(1-oxo-5-(4-((4-(pyridin-4-yl)piperazin-1-yl)methyl)pyridin-2-yl)isoindolin-2-yl)piperidine-2,6-dione], at Helios, the DC50 was > 10 µM and the Dmax worked out at 0%. On Ikaros, the DC50 was > 10 µM and the Dmax turned out to be 0%.

As for `O=C1CCC(N2Cc3cc(-c4cc(CN5CCN(c6cnccn6)CC5)ccn4)ccc3C2=O)C(=O)N1` (stereo not shown) [Example 26, 3-(1-oxo-5-(4-((4-(pyrazin-2-yl)piperazin-1-yl)methyl)pyridin-2-yl)isoindolin-2-yl)piperidine-2,6-dione], on Helios, the 50% degradation concentration (DC50) was > 10 µM and the Dmax came to 6%. Further, at Ikaros, the DC50 was > 10 µM and the Dmax was found to be 15%.

With `Cc1cccc(N2CCN(Cc3ccnc(-c4ccc5c(c4)CN(C4CCC(=O)NC4=O)C5=O)c3)CC2C)c1` (stereo not shown) [Example 27, 3-(5-(4-((3-methyl-4-(m-tolyl)piperazin-1-yl)methyl)pyridin-2-yl)-1-oxoisoindolin-2-yl)piperidine-2,6-dione], at Helios, the DC50 is > 10 µM and the Dmax is 36%. On Ikaros, the DC50 was > 10 µM and the Dmax amounted to 7%.

With `CC(=O)N1CCN(Cc2ccnc(-c3ccc4c(c3)CN(C3CCC(=O)NC3=O)C4=O)c2)CC1` (stereo not shown) [Example 28, 3-(5-(4-((4-acetylpiperazin-1-yl)methyl)pyridin-2-yl)-1-oxoisoindolin-2-yl)piperidine-2,6-dione], the DC50 at Helios and on Ikaros was > 10 µM each time. In addition, the Dmax on Helios is 17%; at Ikaros, 13%.

In the case of `CN1CCC(N(C)Cc2ccnc(-c3ccc4c(c3)CN(C3CCC(=O)NC3=O)C4=O)c2)C1` (stereo not shown) [Example 29, 3-(5-(4-((methyl(1-methylpyrrolidin-3-yl)amino)methyl)pyridin-2-yl)-1-oxoisoindolin-2-yl)piperidine-2,6-dione], at Helios, the DC50 was determined as 7.51 µM and the “Helios Dmax” value came out at 55%. On Ikaros, the DC50 is > 10 µM and the Dmax was determined as 6%.

For the compound `CN1CCC[C@H]1CC1CCCCN1Cc1ccnc(-c2ccc3c(c2)CN(C2CCC(=O)NC2=O)C3=O)c1` (stereo partly drawn) [Example 30, 3-(5-(4-((2-(((S)-1-methylpyrrolidin-2-yl)methyl)piperidin-1-yl)methyl)pyridin-2-yl)-1-oxoisoindolin-2-yl)piperidine-2,6-dione], on Helios, the DC50 was > 10 µM and the Dmax came out at 46%. On Ikaros, the half-maximal degradation concentration (DC50) is > 10 µM and the Dmax is -1%.

On to `CC(=O)N[C@H]1CCN(Cc2ccnc(-c3ccc4c(c3)CN(C3CCC(=O)NC3=O)C4=O)c2)C1` (stereo partly drawn) [Example 31, N-((3S)-1-((2-(2-(2,6-dioxopiperidin-3-yl)-1-oxoisoindolin-5-yl)pyridin-4-yl)methyl)pyrrolidin-3-yl)acetamide], for which, at Helios, the DC50 amounted to 0.268 µM and the Dmax turned out to be 81%. On Ikaros, the DC50 is > 10 µM and the Dmax was 20%.

For the compound `O=C1CCC(N2Cc3cc(-c4cc(CN5CCN(C(=O)C6CCCO6)CC5)ccn4)ccc3C2=O)C(=O)N1` (stereo not shown) [Example 32, 3-(1-oxo-5-(4-((4-(tetrahydrofuran-2-carbonyl)piperazin-1-yl)methyl)pyridin-2-yl)isoindolin-2-yl) piperidine-2,6-dione], on Helios, the DC50 was > 10 µM and the Dmax is 35%. In addition, at Ikaros, the DC50 was > 10 µM and the Dmax was 23%.

Regarding `CN(C)[C@H]1CCN(Cc2ccnc(-c3ccc4c(c3)CN(C3CCC(=O)NC3=O)C4=O)c2)C1` (stereo partly drawn) [Example 33, 3-(5-(4-(((S)-3-(dimethylamino)pyrrolidin-1-yl)methyl)pyridin-2-yl)-1-oxoisoindolin-2-yl)piperidine-2,6-dione], on Helios, the DC50 was > 10 µM and the Dmax stood at 50%. Further, at Ikaros, the DC50 was > 10 µM and the Dmax stood at 2%.

As to `CN(CC(=O)N(C)C)Cc1ccnc(-c2ccc3c(c2)CN(C2CCC(=O)NC2=O)C3=O)c1` (stereo not shown) [Example 34, 2-(((2-(2-(2,6-dioxopiperidin-3-yl)-1-oxoisoindolin-5-yl)pyridin-4-yl)methyl)(methyl)amino)-N,N-dimethylacetamide], on Helios, the DC50 was > 10 µM and the Dmax is 26%. Further, on Ikaros, the DC50 is > 10 µM and the Dmax stood at 9%.

As to `CN1CCN(Cc2ccnc(-c3ccc4c(c3)CN(C3CCC(=O)NC3=O)C4=O)c2)CC1` (stereo not shown) [Example 35, 3-(5-(4-((4-methylpiperazin-1-yl)methyl)pyridin-2-yl)-1-oxoisoindolin-2-yl)piperidine-2,6-dione], the DC50 on Helios is 0.869 µM; on Ikaros it was > 10 µM. The Dmax at Helios was 63%; on Ikaros it was 30%.

As for `O=C1CCC(N2Cc3cc(-c4cc(CN5CCN(Cc6ccccc6)CC5)ccn4)ccc3C2=O)C(=O)N1` (stereo not shown) [Example 36], on Helios, the DC50 was > 10 µM and the “Helios Dmax” value turned out to be 11%. Moreover, on Ikaros, the 50% degradation concentration (DC50) was > 10 µM and the “Ikaros Dmax” value was determined as 14%.

Regarding `O=C1CN(Cc2ccnc(-c3ccc4c(c3)CN(C3CCC(=O)NC3=O)C4=O)c2)CCN1` (stereo not shown) [Example 37, 3-(1-oxo-5-(4-((3-oxopiperazin-1-yl)methyl)pyridin-2-yl)isoindolin-2-yl)piperidine-2,6-dione], on Helios, the 50% degradation concentration (DC50) was > 10 µM and the Dmax is 24%. Also, on Ikaros, the DC50 was > 10 µM and the Dmax amounted to 10%.
